# Earlier results as cited in patent US11766438B2, “Pharmaceutical compositions of tofacitinib for oral administration” (Slayback Pharma LLC, priority 2020, dated 2023).
# Read-outs that look alike come from different tables or passages of the source.
compound,measurement,setting,value
"C[C@@H]1CCN(C(=O)CC#N)C[C@@H]1N(C)c1ncnc2[nH]ccc12.O=C(O)CC(O)(CC(=O)O)C(=O)O [Tofacitinib citrate, (3R,4R)-4-methyl-3-(methyl-7H-pyrrolo[2,3-d]pyrimidin-4-ylamino)-β-oxo-1-piperidinepropanenitrile, 2-hydroxy-1,2,3-propanetricarboxylate (1:1)]",Solubility,aqueous solution of pH 1 to 3.9,3.48 to 28 mg/mL
same,Solubility,aqueous solution of pH 4.53 to 8,0.20 to 0.59 mg/mL
